For data set [1] the following is noted: earlier pharmacokinetic studies (Hollman and Katan, 1997; Hollman, 1997); cited from earlier work.
Data set [2] in a line: intestinal absorption of isoquercetin. The data set is classed as in vivo. As to conditions: human intestinal tract; compared with rutin and quercetin aglycone. An excerpt:
Therefore, the increased effectivity of ascorbate protectioin may be caused by the fact that isoquercetin contains a glucose molecule. This glucose molecule seems to be the reason why isoquercetin is able to use the sodium-dependent glucose transport pathway of the intestinal brush-border membrane in its absorption process (Gee et al., 1998).

Entries after “also recorded” stand apart in the source; their conditions may differ.

As for `O=c1c(O[C@@H]2O[C@H](CO)[C@@H](O)[C@H](O)[C@H]2O)c(-c2ccc(O)c(O)c2)oc2cc(O)cc(O)c12` [isoquercetin, quercetin-3-O-glucoside], the “absorption rate and bioavailability” value in data set [1] is “excellent absorption rate and bioavailability; also recorded: absorbed better than rutin and quercetin”. In addition, the absorption entry in data set [2] was “better than that of pure aglycone; also recorded: far better absorption rates in human intestinal tract than rutin or the quercetin aglycone”.
